{"source": "paper PMC10354759", "about": "“Preclinical assessment of IRDye800CW‐labeled gastrin‐releasing peptide receptor‐targeting peptide for near infrared‐II imaging of brain malignancies” (Bioengineering & Translational Medicine, 2023)", "key": {"[1]": {"tested_on": "glioblastoma (GL261 cells)", "assay": "Histological colocalization of fluorescence signal and tumor (Manders' coefficients)", "assay_type": "in vivo, C57BL/6 mouse", "conditions": "120 mg/kg intraperitoneally, 4 h post-injection", "procedure": "We equally analyzed the histological colocalization of the fluorescence signal and cancer cells. […] Frozen sectioning was performed after fixation of the brain specimen in Tissue‐Tek O.C.T. using a cryostat. The fixed tissue was sliced axially at 30 μm thickness and mounted on a slide for immediate fluorescence micro imaging with the BZ‐X800. Multiple slices were performed across the tumor. Subsequently, we stained some slices with H&E according to common standard procedure, and imaged them with BZ‐X800 or Vectra Polaris. […] The mouse was euthanized and prepared for section imaging at 4 h post‐injection. The 5‐ALA emission was collected with an excitation filter (545 ± 25 nm), dichromatic mirror (565 nm), and a barrier filter (605 ± 70 nm). Quantification of the colocalization of tumor on H&E staining, 5‐ALA, and NIR were performed with the JACoP plugin for ImageJ using the Manders' coefficients.[28] Values of these coefficients range from 0 to 1 and express the fraction of intensity in a channel located in pixels where there is above threshold intensity in the other color channel."}, "[2]": {"conditions": "cited from earlier work; for brightness (NIR-I) higher than ICG: 100 μM", "source_text": "Near‐infrared fluorescence imaging technology is widely used for FGS due to its non‐invasive, real‐time, and multi‐dimensional monitoring characteristics. The combination of the reducing photon scattering, light absorption, and tissue autofluorescence provides a clear view deep into the body, capable of extraordinarily high SBR that are only accomplishable when moving from the NIR‐I to NIR‐II region. Because some organic dyes are relatively easy to synthesize, modifiable, and have low biological toxicity, several studies recently explored clinically approved or commercially available NIR‐I cya ..."}, "GRPR of GL261 cell line": {"target": "T1, GRPR of GL261 cell line (Mus musculus, UniProt P21729)", "T1 construct": "host or cells: GL261 (stably expressing firefly luciferase)", "T1 sequence (P21729 whole entry)": "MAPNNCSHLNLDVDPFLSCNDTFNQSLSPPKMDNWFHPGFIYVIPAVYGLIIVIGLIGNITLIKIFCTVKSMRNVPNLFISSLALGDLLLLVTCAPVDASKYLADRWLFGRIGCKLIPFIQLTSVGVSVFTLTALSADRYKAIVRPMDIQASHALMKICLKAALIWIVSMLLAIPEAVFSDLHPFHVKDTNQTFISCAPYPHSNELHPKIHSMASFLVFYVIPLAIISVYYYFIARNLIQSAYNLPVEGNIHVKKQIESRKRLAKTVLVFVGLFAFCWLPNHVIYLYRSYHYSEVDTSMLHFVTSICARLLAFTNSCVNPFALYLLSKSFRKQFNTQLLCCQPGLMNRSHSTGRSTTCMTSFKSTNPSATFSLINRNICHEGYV", "assay": "Targeted cell imaging (uptake and RM26 blocking)", "assay_type": "cell-based", "conditions": "500 μM RM26 before 100 μM IRDye800-RM26, imaged after 1 h", "source_text": "Subsequently, we washed the cells with 1 × PBS 3 times and scanned then using fluorescence microscopy (BZ‐X800; KEYENCE, Japan). The NIR emission was collected with an excitation filter (775 ± 50 nm), dichromatic mirror (810 nm), and a barrier filter (845 ± 55 nm)."}}, "note": "Read-outs that look alike come from different tables or passages of the source.", "data": [{"compound": "NCC(=O)CCC(=O)O", "note": "[5-ALA, 5‐aminolevulinic acid]", "values": [{"measurement": "fraction of glioblastoma on 5-ALA overlapping tumor on H&E (Manders' coefficient)", "setting": "[1]", "result": 99.8, "unit": "%"}, {"measurement": "fraction of tumor on H&E overlapping tumor on 5-ALA (Manders' coefficient)", "setting": "[1]", "result": 63.8, "unit": "%"}]}, {"compound": "CC1(C)C(/C=C/C=C/C=C/C=C2\\N(CCCCS(=O)(=O)O)c3ccc4ccccc4c3C2(C)C)=[N+](CCCCS(=O)(=O)[O-])c2ccc3ccccc3c21", "note": "[ICG, indocyanine green]", "values": [{"measurement": "brightness relative to IRDye800CW", "setting": "[2]; bovine blood, 0.01 mg/mL", "result": 12.3, "unit": "times"}, {"measurement": "concentration with maximum fluorescence intensity", "setting": "[2]; in BSA", "result": "10000 to 20000", "unit": "ng/mL"}]}, {"compound": "CC1(C)C(/C=C/C2=C(Oc3ccc(S(=O)(=O)O)cc3)C(=C/C=C3/N(CCCCS(=O)(=O)O)c4ccc(S(=O)(=O)[O-])cc4C3(C)C)/CCC2)=[N+](CCCCCC(=O)O)c2ccc(S(=O)(=O)O)cc21", "note": "[IRDye800]", "values": [{"measurement": "brightness (NIR-I) higher than ICG", "setting": "[2]; FBS", "result": 1.8, "unit": "fold"}, {"measurement": "quantum yield (QY)", "setting": "[2]; NIR-I, serum", "result": 12, "unit": "%"}, {"measurement": "brightness (NIR-I) higher than ICG", "setting": "[2]; PBS", "result": 3.3, "unit": "fold"}]}, {"compound": "D‐Phe‐Gln‐Trp‐Ala‐Val‐Gly‐His‐Sta‐Leu‐NH2 [RM26]", "values": [{"measurement": "effect of RM26 blocking on IRDye800-RM26 uptake", "setting": "GRPR of GL261 cell line", "result": "reduced"}]}]}
